Tests used:
[1] = test system: type I/III collagen production by HDFa cells; experiment: Collagen quantification, picrosirius red (Direct red 80) staining; format: cell-based, Human; conditions: 72 h incubation, different concentrations, absorbance 490 nm, ANOVA, n = 3
Method: To quantify collagen production, HDFa cells were seeded at a confluency of 1 × 10^4 cells/well into 96‐well plates in DMEM/F12 + 5 μg/mL of insulin and incubated for 3 days in DMEM/F12 without supplements as control, or DMEM/F12 + different concentrations of lipoyl‐KTTKS and conventional supplements (ascorbic acid 1 mM, TGFβ1 0.025 ng/mL and insulin 10 μg/mL). After incubation, the cells were washed three times with PBS and were fixed with cold ethanol 70%. The plate was transferred to a −80°C ultra‐freezer for 10 min and washed with water to remove any residual ethanol. After fixation, the collagen was incubated overnight in a solution containing Direct red 1 mg/mL in picric acid at 4°C. After this final incubation, the fixed cells were washed with distilled water to remove any residual dye, and the collagen and cells were then treated with 1‐mM NaOH for 10 min at room temperature. The resulting absorbance was measured at 490 nm using an Infinite F50 microplate reader (TECAN, Switzerland).
Because of the great commercial interest in KTTKS pentapeptides in cosmetic products with proposed antiaging properties resulting from cellular matrix stimulation, collagen production assays were performed using the technique of picrosirius red (commercial name, Direct red 80) staining (UV/vis absorbance) measurements.

RAW 264.7 cells = experiment: Nitrite (inflammation) assay with Griess reagent; format: cell-based; conditions: 2 μg LPS, 24 h, different concentrations, absorbance 550 nm, ANOVA with Bonferroni correction
Method: To detect nitrite, the Griess reagent assay was used, following protocols described previously. Amounts 5 × 10^3 RAW 264.7 cells were seeded in a 96‐well plate and incubated for 24 h inside the cell incubator. After 24 h, the cells were washed three times with PBS and incubated in 100 μL of DMEM + 2 μg of LPS (lipopolysaccharide) for 24 h. After incubation in the presence of LPS, 100 μL of Griess reagent solution was added to each well and incubated for 10 min at room temperature. The resulting absorbance was measured at 550 nm using an Infinite F50 microplate reader (TECAN, Switzerland).
The Griess reagent assay was used as an indirect measure of the production of nitrite ions, an important species related to inflammation, by monitoring the presence of nitrites in media via colorimetric (UV‐vis absorbance) measurements. The assay was performed by incubating the cells in DMEM containing 2 μg of LPS with different concentrations of lipoyl‐KTTKS. Controls containing only LPS and RAW cells incubated in DMEM without LPS were also prepared.

[2] = test system: UV-induced collagenase (MMP-1); conditions: cited from earlier work
Source text: (§1) Here, we investigate the structural properties, biocompatibility and collagen‐stimulating activity of a novel peptide amphiphile comprising a conjugate of lipoic acid to pentapeptide KTTKS, termed lipoyl‐KTTKS (Scheme 1).

melanin synthesis = conditions: cited from earlier work
Source text: as §1

[3] = cited from earlier work
Source text: as §1

tyrosinase = conditions: cited from earlier work
Source text: as §1

HDFa cells = experiment: MTT cytocompatibility assay; format: cell-based, Human; conditions: 72 h incubation, concentrations up to 0.1 wt%, absorbance 560 nm, ANOVA, n = 3
Method: For the cytocompatibility assays, HDFa cells were cultivated in DMEM/F12 supplemented with 5% FBS, Glutamax, penicillin/streptomycin 100 IU/mL and incubated at 37°C within an atmosphere of 5% CO2. The RAW cells were cultured in DMEM with 10% FBS, Glutamax, penicillin/streptomycin 100 IU/mL and maintained under the same conditions as the HDFa cells.
To measure the cytocompatibility of lipoyl‐KTTKS, 24 h before the assay HDFa cells were cultivated in 96‐well plates with 1 × 10^4 cells/well with supplemented DMEM/F12. Then, the wells were washed three times with PBS, and cells were incubated for 72 h in media containing different concentrations of lipoyl‐KTTKS. After incubation, the cells were washed again three times with PBS and 100 μL of DMEM/F12 without phenol red + 5 μg/mL of MTT was added to each well. The plate containing cells in media containing MTT was incubated for 4 h inside an incubator at 37°C, protected from the light. After incubation, 100 μL of DMSO was added to each well to solubilize the resulting formazan crystals. The absorbance was measured at 560 nm using an Infinite F50 microplate reader (TECAN, Switzerland).

[4] = test system: procollagen type I carboxy-terminal peptide (PIP); conditions: cited from earlier work
Source text: Here, we investigate the structural properties, biocompatibility and collagen‐stimulating activity of a novel peptide amphiphile comprising a conjugate of lipoic acid to pentapeptide KTTKS, termed lipoyl‐KTTKS (Scheme 1). […] This can be contrasted with previous reported data f ...

[5] = Cryo-TEM of aggregation in solution; format: physicochemical; conditions: 3 wt% aqueous solution, above the CAC
Source text: Cryo‐TEM was used to probe potential aggregation in solution above the CAC (3 wt% aqueous solution). […] The presence of such structures was also confirmed by SAXS and SANS data (Figure 3), which reveal form factor features that can be fitted using a core‐shell cylinder form factor, consistent with extended fibril structures. The cylinder radius is 25 Å, which is approximately equal to the estimated length of the molecule considering the lipid chain plus a pentapeptide in a β‐sheet conformation. […] For the SAXS data, it was necessary to include a contribution in the fits from unaggregated peptide, which gives rise to scattering at high q, described using a generalized Gaussian coil form factor (generalized refers to allowing the Flory exponent for the coil to vary from the value ν = 0.5 for an unperturbed coil). SANS data for 3 wt% solutions of lipoyl‐KTTKS in D2O can be fitted to a core‐shell cylinder form factor, consistent with SAXS, with fit parameters listed in Table S1. It was not necessary to allow for unaggregated monomer in fitting the SANS data, which may be because of the higher background and/or altered scattering contrast compared with SAXS. The cylinder radius and shell thickness obtained from the fits to the SANS data are in excellent agreement with the parameters obtained from the SAXS fit.
FIGURE 2 Cryo‐TEM image from a 3‐wt% aqueous solution of lipoyl‐KTTKS.

Substance: lipoyl‐KTTKS [peptide amphiphile comprising a conjugate of lipoic acid to pentapeptide KTTKS]
- Collagen production compared with the control or conventional stimulants [1]: no statistically significant increase
- Production of nitrites compared with cells incubated only in DMEM (without LPS) (RAW 264.7 cells; n = 3): statistically significant increase
- Production of nitrites compared with cells incubated only in DMEM (without LPS) (RAW 264.7 cells; n = 3, listed as lipoyl‐KTKKS): increase
- Effect on UV-induced collagenase (MMP-1) activity [2]: inhibits
- Effect on melanin synthesis (melanin synthesis): inhibits
- Cytocompatibility [3]: good cytocompatibility
- Effect on tyrosinase activity (tyrosinase): inhibits
- Cytotoxicity (cell viability, MTT) (HDFa cells): does not present any statistically significant cytotoxicity
- Increase in collagen synthesis compared with negative control ([4]; 0.038 wt% (0.5 mM) sample, enzyme immunoassay of PIP, single data point): 65%
- Collagen synthesis relative to control and KTTKS [4]: superior to control and KTTKS itself
- Aggregate structure seen by cryo-TEM [5]: short curly fibrils

Source: PMC11794677, “Self‐Assembly of a Conjugate of Lipoic Acid With a Collagen‐Stimulating Pentapeptide Showing Cytocompatibility and Wound Healing Properties, and Chemical and Photolytic Disassembly” (Journal of Peptide Science, 2025)
